The results in this text go back to patent US10053443B2, “2-phenylbenzofuran derivatives, method for preparing the same and use of the same for treating inflammatory disease” (KOREA RESEARCH INSTITUTE OF BIOSCIENCE AND BIOTECHNOLOGY, priority 2014, dated 2018).

Data set [1] has as its system Tumor Necrosis Factor Alpha (TNF-alpha). The data set can be described thus: Inhibition of TNF-alpha generation in LPS-treated Raw 264.7 cells (ELISA). It counts as cell-based. Particulars: Mus musculus, RAW264.7; Raw 264.7, LPS treated; read-out: Grades of IC50 on TNF-alpha generation. Here is the method: Raw 264.7 cells were distributed by the same manner as described in Experimental Example <2-1>, which were treated with the samples selected due to their high NO and IL-6 suppressing effect at different concentrations. TNF-alpha included in the supernatant was measured by enzyme-linked immunosorbent assay (TNF-alpha ELISA kit, R&D Systems, MN, USA).
(§1) Particularly, 100-fold diluted supernatant was distributed in a 96-well plate on which TNF-alpha antibody was attached, followed by adhesion for 2 hours. The supernatant remaining after the adhesion was washed with a washing buffer. The detection antibody and HRP were adhered on the washed plate for 1 hour. The remaining antibody was washed. Color development was induced by using TMB substrate. The reaction was terminated with sulfuric acid solution. Then, OD450 was measured. TNF-alpha in the supernatant was quantified by using the standard curve made with the standard TNF-alpha included in the kit. TNF-alpha suppression rate was calculated by measuring the same concentration that could inhibit TNF-alpha generation up to 50% in the LPS treated group and the results are shown in Table 9.
On the technique in general: ELISA stands for enzyme-linked immunosorbent assay.

The subject of data set [2] is Raw 264.7 (ATCC TIB71) cells. Kind of data set: Evaluation of cell survival rate of macrophages (MTT). As to conditions: Raw 264.7, 10 μM, 24 hours. It counts as cell-based, mouse. The procedure:
Raw 264.7 (ATCC TIB71) cells, the mouse derived macrophages', were inoculated in a 96-well plate containing DMEM (Dulbecco's modified Eagle medium; Welgene, Korea) supplemented with 10% FBS (Fetal Bovine Serum), 2 mM glutamine, penicillin (100 unit/ml), and streptomycin (100 μg/ml) at the density of 1×10^4 cells/well. The cells were cultured in 5% CO2 at 37° C. for 4 hours to attach the cells onto the plate. Next, the cells were treated with each sample at different concentrations, followed by further culture for 24 hours. To investigate the cell survival rate, 5 mg/ml of MTT (3-(4,5-dimethylthiazol-2-yl)-2,5-diphenyltetrazoliumbromide, Amresco, OH, USA) was distributed thereto (10 μl/well), followed by culture for 4 hours. Then, the supernatant was eliminated. Formazan reduced from MTT by mitochondria was dissolved in 100 μl of DMSO and then OD570 was measured. 0.2% DMSO was used for the negative control.

The test system of data set [3] is Nitrogen Oxide (NO) generation. Kind of data set: Inhibition of nitrogen oxide (NO) generation in LPS-treated Raw 264.7 cells (Griess). It counts as cell-based, mouse. As to conditions: Raw 264.7, LPS 500 ng/ml, 24 hours. The procedure:
Raw 264.7 (ATCC TIB71) cells were inoculated in a 96-well plate containing the same medium as used in Experimental Example 1 at the density of 1×10^5 cells/well. The cells were cultured in 5% CO2 at 37° C. for 4 hours to attach the cells onto the plate. The cells were treated with each sample at different concentrations, followed by further culture for 1 hour. […] were treated thereto at the final concentration of 500 ng/ml, followed by further culture for 24 hours. 100 μl of the supernatant was taken and transferred in a new plate, which was mixed with Griess reagent (a mixture of 1% sulfanilamide, 0.1% N-[1-naphthyl]-ethylenediamine dihydrochloride, and 5% phosphoric acid), followed by reaction for 10 minutes. Then, OD540 was measured. NO generation was quantified by using the sodium nitrite standard curve prepared from […] dissolved in the same medium at different concentrations. Considering the NO generation of the inflammation induced macrophages as 100%, the NO generation inhibition rate was calculated and presented in Table 7.
For orientation: Griess reagent forms a coloured azo dye with nitrite.

For data set [4], the system named is interleukin-6 (IL-6) generation. The data set can be described thus: Inhibition of interleukin-6 (IL-6) generation in LPS-treated Raw 264.7 cells (ELISA). It counts as cell-based, mouse. Particulars: Raw 264.7, LPS treated, read-out: Grades of IC50 on IL-6 generation. The procedure:
Raw 264.7 cells were distributed by the same manner as described in Experimental Example <2-1>, and IL-6 included in the supernatant treated with each sample at different concentrations was measured by enzyme-linked immunosorbent assay (IL-6 ELISA kit, BD Bioscience, San Diego, Calif.).
as §1, with “10-fold” for “100-fold”, “IL-6” for “TNF-alpha”, “8.” for “9.”

Data set [5] has as its system rheumatoid arthritis animal model. As to conditions: DBA/1 CIA mice, 30 mg/kg oral, FIGS. 11 and 12. Here is the method:
(§2) Bovine type II collagen (100 μg/mouse, Hondrax, Seattle, USA) and complete Freund's adjuvant (Chondrex, Seattle, USA) were intradermally injected in the tail of […]. On day 21, 100 μg of bovine type II collagen was mixed with incomplete Freund's adjuvant (IFA), which was injected in the tail of each mouse once again to induce arthritis.
(§3) The compound of Example 25 of the invention was dissolved in a solvent (10% DMAC+10% Tween 80 in PBS).
(§4) Administration pathway: Oral administration Group (6 per group) • Vehicle control group (CIA group) • Dexamethasone (0.3 mg/kg)—positive control group • Example 25 compound group (30 mg/kg)

The test system of a further data set is interleukin-6. Particulars: DBA/1 CIA mice, 30 mg/kg oral, FIG. 14. The procedure: as §2, §3, §4
(§5) ELISA was performed with the serum and foot to investigate whether or not the compound of the invention could suppress the generation of TNF-alpha and interleukin-6, the inflammatory cytokines known as the promoter of inflammation which is the common symptom of acute and chronic arthritis.

The next data set relates to TNF-alpha. As to conditions: DBA/1 CIA mice, 30 mg/kg oral, FIG. 13. The procedure:
as §2, §3, §4, §5

A short description of data set [6]: Rheumatoid arthritis (collagen-induced) model: weight changes. Particulars: DBA/1 CIA mice, 30 mg/kg oral, FIG. 10. The class given is in vivo, mouse.
Experimental: Bovine type II collagen (100 μg/mouse, Hondrax, Seattle, USA) and complete Freund's adjuvant (Chondrex, Seattle, USA) were intradermally injected in the tail of 7˜9 DBA/1 male mouse. On day 21, 100 μg of bovine type II collagen was mixed with incomplete Freund's adjuvant (IFA), which was injected in the tail of each mouse once again to induce arthritis.

Structures are written as SMILES. Where two headings read alike, the source gives them in different places.

For the compound `COc1ccc(-c2cc3cc(CCCO)cc(OC)c3o2)cc1OC` [Example 1, 3-[2-(3,4-dimethoxyphenyl)-7-methoxybenzofuran-5-yl]propane-1-ol], the IC50 is 5 to 10 µM in data set [1] and 10 to 20 µM in data set [4] (Mus musculus, RAW264.7). For the same compound, the “Grades of cell survival rate (%, in 10 μM)” value (“Grades … (%, in 10 μM)” below) in data set [2] is “A (A: 90<A≤100)”. Besides, in data set [3], the “Grades of NO generation inhibition rate (%)” value is recorded as “D (D: 5<D≤15)”.

As to `COc1ccc(-c2cc3cc(CCCO)cc(OC)c3o2)c(C)c1` [Example 2, 3-(7-methoxy-2-(4-methoxy-2-methylphenyl)benzofuran-5-yl)propane-1-ol], the IC50 in data set [1] is 3 to 5 µM; in data set [4] (Mus musculus, RAW264.7), no more than 10 µM. In addition, the “Grades … (%, in 10 μM)” value in data set [2] was “A (A: 90<A≤100)”. For the same compound, the “Grades of NO generation inhibition rate (%)” value in data set [3] is recorded as “A (A: 35<A≤100)”.

As to `COc1cc(CCCO)cc2cc(-c3cc(F)cc(F)c3)oc12` [Example 6, 3-[2-(3,5-difluorophenyl)-7-methoxybenzofuran-5-yl]propane-1-ol], the IC50 lay in the range of 15 to 17 µM in data set [1] and 10 to 20 µM in data set [4] (Mus musculus, RAW264.7). The “Grades … (%, in 10 μM)” value in data set [2] is on record as “A (A: 90<A≤100)”. The “Grades of NO generation inhibition rate (%)” value in data set [3] is listed as “B (B: 25<B≤35)”.

As for `COc1cc(CCCO)cc(CCc2cccc(C)c2)c1O` [Example 15, 4-(3-hydroxypropyl)-2-methoxy-6-(3-methylpenethyl)phenol], the “Grades … (%, in 10 μM)” value in data set [2] is “A (A: 90<A≤100)”. Besides, the “Grades of NO generation inhibition rate (%)” value in data set [3] is reported as “A (A: 35<A≤100)”. Further, the IC50 in data set [4] was in the range of 20 to 30 µM. In data set [5], the “edema in the foot induced by collagen (clinical score)” value was “suppressed edema in the foot induced by collagen up to the level of the positive control”. In the data set on interleukin-6, the “generation of interleukin-6 induced by collagen” value is “inhibited”. Further, the “generation of TNF-alpha induced by collagen” value with TNF-alpha is “inhibited”.

As for `COc1cc(-c2cc3cc(CCCO)cc(OC)c3o2)ccc1O` [Example 22, 4-(5-(3-hydroxypropyl)-7-methoxybenzofuran-2-yl)-2-methoxyphenol], the IC50 in data set [1] was 3 to 5 µM; in data set [4] (Mus musculus, RAW264.7), no more than 10 µM. The “Grades … (%, in 10 μM)” value in data set [2] is on record as “A (A: 90<A≤100)”. Also, the “Grades of NO generation inhibition rate (%)” value in data set [3] is listed as “A (A: 35<A≤100)”.

As to `COc1cc(CCCO)cc2cc(-c3cc(O)cc(O)c3)oc12` [Example 24, 5-(5-(3-hydroxypropyl)-7-methoxybenzofuran-2-yl)benzene-1,3-diol], the IC50 in data set [1] lay within 5 to 10 µM; in data set [4] (Mus musculus, RAW264.7) it was 10 to 20 µM. Besides, the “Grades … (%, in 10 μM)” value in data set [2] is “A (A: 90<A≤100)”. The “Grades of NO generation inhibition rate (%)” value in data set [3] is “A (A: 35<A≤100)”.

Take `COc1cc(CCCO)cc2cc(-c3ccc(O)c(O)c3)oc12` [Example 25, 4-(5-(3-hydroxypropyl)-7-methoxybenzofuran-2-yl)benzene-1,2-diol]: the IC50 was 1 to 3 µM in data set [1] and no more than 10 µM in data set [4] (Mus musculus, RAW264.7). Besides, the “Grades … (%, in 10 μM)” value in data set [2] was “A (A: 90<A≤100)”. Besides, the weight change entry in data set [6] is “no weight change observed”. Also, the “Grades of NO generation inhibition rate (%)” value in data set [3] is given as “A (A: 35<A≤100)”.

Consider `COc1cc(-c2cc3cc(CCCO)cc(OC)c3o2)cc(OC)c1O` [Example 26, 4-(5-(3-hydroxypropyl)-7-methoxybenzofuran-2-yl)-2,6-dimethoxyphenol], for which the IC50 in data set [1] was 1 to 3 µM; in data set [4] (Mus musculus, RAW264.7) it was no more than 10 µM. Moreover, the “Grades … (%, in 10 μM)” value in data set [2] is recorded as “A (A: 90<A≤100)”. In data set [3], the “Grades of NO generation inhibition rate (%)” value is given as “A (A: 35<A≤100)”.

Regarding `COc1ccc(-c2cc3cc(CCCOC(C)=O)cc(OC)c3o2)cc1OC` [Example 28, 3-(2-(3,4-dimethoxyphenyl)-7-methoxybenzofuran-5-yl)propyl acetate], the IC50 in data set [1] lay in the range of 1 to 3 µM; in data set [4] (Mus musculus, RAW264.7), 20 to 30 µM. In addition, the “Grades … (%, in 10 μM)” value in data set [2] was “A (A: 90<A≤100)”. Moreover, the “Grades of NO generation inhibition rate (%)” value in data set [3] was “B (B: 25<B≤35)”.
